Results on 14 compounds are retold here after paper PMC10149936, “Cofilin activation in pancreatic acinar cells plays a pivotal convergent role for mediating CCK-stimulated enzyme secretion and growth” (Frontiers in Physiology, 2023).

No end group written: not given here.

In test [1] the test system is cofilin (pS3) in rat pancreatic acini. Kind of test: cofilin activation (phospho-pS3 cofilin Western blot) in isolated rat pancreatic acini. It is filed as cell-based. The note with it: for inhibition of dephosphorylation of cofilin stimulated by CCK-8 or TPA: PF-3758309 0.1 nM or LCH-7749944 30 µM; for inhibition of dephosphorylation of cofilin stimulated by CCK-8 or TPA / effect on basal phosphorylation level of cofilin / reversal of cofilin dephosphorylation stimulated by CCK-8 and TPA: 3 h; for inhibition of dephosphorylation of cofilin stimulated by CCK-8 or TPA / reversal of cofilin dephosphorylation by CCK-8: CCK-8 0.3 and 100 nM 3 min; for inhibition of dephosphorylation of cofilin stimulated by CCK-8 or TPA / reversal of cofilin dephosphorylation stimulated by CCK-8 and TPA: TPA 1 µM 5 min; for decrease of basal phosphorylation levels of cofilin / inhibition of CCK-8-stimulated dephosphorylation of cofilin: LIMK inhibitor 10 µM 3 h; for inhibition of CCK-8-stimulated dephosphorylation of cofilin: CCK-8 0.3 or 100 nM 3 min; for reversal of cofilin dephosphorylation by CCK-8: Wortmannin 1 µM, LY294002 100 µM, SB202190 10 µM, U0126 10 µM, Y-27632 10 µM 1 h, SP600125 20 µM 3 h; for effect on basal phosphorylation level of cofilin / reversal of cofilin dephosphorylation stimulated by CCK-8 and TPA: GFX 5 µM, kbNB 0.1 µM or PP2 10 µM; for reversal of cofilin dephosphorylation stimulated by CCK-8 and TPA: CCK-8 100 nM 3 min; for effect on cofilin phosphorylation (pS3): 1 min, CCK-8 100 nM, carbachol 1 μM, bombesin 1 nM, secretin 1 nM or VIP 1 nM, n at least 3. Here is the method:
(§1) Pancreatic acini preparations were obtained by collagenase digestion as previously described ([Bissonnette et al., 1984]; [Sato et al., 1989]; [Ramos-Alvarez and Jensen, 2018]). After collagenase digestion, dispersed acini were preincubated with different inhibitors in standard incubation solution ([Ramos-Alvarez and Jensen, 2018]; [Ramos-Ãlvarez et al., 2020]) for 3 h at 37°C under conditions specific for PKD/PKC, Src, PI3K, MAPKs, SSH1, LIMK, cofilin, other phosphatases and PAK4 inhibitors, as described previously ([Ramos-Alvarez and Jensen, 2018]; [Ramos-Ãlvarez et al., 2020]). Isolated acini and CCK1-R/Panc-1 cells (M&M 2.2.1) were also preincubated with two SSH1 inhibitors, D3 (25 μM, 1 h) ([Li et al., 2015]) or SE (50 μM, 3 h for acini; 24 h for CCK1-R/Panc-1 cells) ([Lee et al., 2017]). After preincubation, 1 mL aliquots of dispersed acini were incubated at 37°C for 3–15 min with CCK-8 (0.3 nM or 100 nM), for 5–15 min with TPA (1 µM) or without stimulants, used as control. Cells were lysed in lysis buffer (50 mM Tris/HCl pH 7.5, 150 mM NaCl, 1% Triton X-100, 1% deoxycholate, 0.1% sodium azide, 1 mM EGTA, 0.4 mM EDTA, 0.2 mM sodium orthovanadate, 1 mM PMSF, and one protease inhibitor tablet per 10 mL). After sonication, lysates were centrifuged at 10,000×g for 15 min at 4°C and protein concentration was measured using the Bio-Rad protein assay reagent. Finally, cells were processed as below for Western blotting.
(§2) Both concentrations of CCK-8 were used because CCK-8 is reported to have different responses with physiological and supraphysiological concentrations contributing to physiological and pathophysiological processes such as pancreatitis ([Dufresne et al., 2006]).
(§3) Western blotting and immunoprecipitation were performed as described previously ([Ramos-Alvarez and Jensen, 2018]). Whole cell lysates were subjected to SDS-PAGE using 4%–20% Tris–Glycine gels. […] Finally, membranes were then washed again twice in blocking buffer for 4 min, twice in washing buffer for 4 min, incubated for 4 min with chemiluminescence detection reagents. The intensity of the protein bands was measured using GeneTools software from Syngene, which were assessed in the linear detection range.
All experiments were performed at least 3 times. Data are presented as mean ± SEM and were analyzed with the non-parametric Kruskal–Wallis analysis (data was not normally distributed) and the Dunn’s multiple comparison test using the GraphPad Prism 8.0 software. P values < 0.05 were considered significant.
(A) Isolated pancreatic acini were incubated in the absence or presence of CCK-8 (100 nM), carbachol (1 μM), bombesin (1 nM), secretin (1 nM) or VIP (1 nM) for 1 min and then lysed. (B) Isolated pancreatic acini were incubated in the absence or presence of CCK-8 and CCK-JMV (at the indicate concentrations) for 3 min and then lysed. Western blots were analyzed using anti-pS3 cofilin, which mediates the activation state of cofilin. Bands were visualized using chemiluminescence and quantified by densitometry.

Test [2] deals with cofilin (pS3) in CCK1-R/Panc-1 cells. The experiment in a line: cofilin activation (pS3 cofilin Western blot) in CCK1-R/Panc-1 cells. It is filed as cell-based, human. The note with it: CCK-8 0.3 or 100 nM; D3 25 µM 1 h or SE 50 µM 24 h. The protocol:
CCK1 receptor transfected Panc-1 (CCK1-R/Panc-1) cells ([Berna et al., 2009]) and AR42J cells, were cultured in DMEM supplemented with 10% FBS and 1% penicillin/streptomycin and in RPMI supplemented with 10% FBS and 1% penicillin/streptomycin, respectively; and split 1:10 weekly with trypsin/EDTA, after washing in PBS. Finally, cells were seeded in 6-well plate and serum starved overnight, until they were 80% confluent. Cells were incubated at 37°C in 5% CO2/95% air. AR42J cells were treated with 100 nM dexamethasone for 72°h, which stimulates their differentiation into exocrine cells ([Logsdon, 1986]).
Pancreatic acini preparations were obtained by collagenase digestion as previously described ([Bissonnette et al., 1984]; [Sato et al., 1989]; [Ramos-Alvarez and Jensen, 2018]). […] Isolated acini and CCK1-R/Panc-1 cells (M&M 2.2.1) were also preincubated with two SSH1 inhibitors, D3 (25 μM, 1 h) ([Li et al., 2015]) or SE (50 μM, 3 h for acini; 24 h for CCK1-R/Panc-1 cells) ([Lee et al., 2017]). […] After sonication, lysates were centrifuged at 10,000×g for 15 min at 4°C and protein concentration was measured using the Bio-Rad protein assay reagent. […]
Western blotting and immunoprecipitation were performed as described previously ([Ramos-Alvarez and Jensen, 2018]). […] The intensity of the protein bands was measured using GeneTools software from Syngene, which were assessed in the linear detection range. […]
FIGURE 3 Effect of two SSH1 inhibitors, D3 and SE (A–C), or SSH1 siRNA (D), on the ability of CCK-8 (0.3 and 100 nM) to activate LIMK and cofilin in pancreatic acini (A/B) and activate cofilin in CCK1-R/Panc-1 cells (C/D). […] Western blots were analyzed using anti-pS3 cofilin and anti-pT508 […], and the knockdown effect of SSH1 was confirmed by Western blots using SSH1 (C-term) antibody. Bands were visualized using chemiluminescence and quantified by densitometry. […] Results are expressed as % of basal stimulation of the control group. *, p < 0.05 compared to the control group; ∞, p < 0.05 compared to stimulants without inhibitors. […]

Test [3] has as its system LIMK (pT508) in pancreatic acini. The experiment in a line: LIMK phosphorylation (pT508 LIMK Western blot) in isolated rat pancreatic acini. The following applies: for decrease of basal levels of LIMK phosphorylation: 10 µM, 3 h preincubation, n at least 4. It is filed as cell-based. Here is the method:
as §1, §2, §3
Isolated pancreatic acini were incubated with either no addition (control), CCK-8 (0.3 and 100 nM) or TPA (1 µM) for the indicated periods of time and then lysed. Western blots were analyzed using anti-pT508 LIMK, anti-pS3 cofilin and anti-pS978 SSH1, which […] the activation states of LIMK, cofilin and SSH1. Bands were visualized using chemiluminescence and quantified by densitometry.

Setting [4] is: SE 50 µM 3 h or D3 25 µM 1 h, no stimulant.
Setting [5] is: inhibitor 10 µM 3 h, CCK-8 0.3 or 100 nM 3 min.

With `Cc1ccccc1N1C(=O)/C(=C/c2ccc(OCc3ccc(C(=O)O)cc3)cc2)SC1=S` [D3, (Z)-4-((4-((4-oxo-2-thioxo-3-(o-tolyl)thiazolidin-5-ylidene)methyl)phenoxy)methyl)benzoic acid], the inhibition at 25 µM in test [1] (Rattus norvegicus, CCK-8 0.3 or 100 nM, 5 min, SE 50 µM 3 h or D3 25 µM 1 h preincubation, n at least 4, read-out: inhibition of CCK-8-caused cofilin dephosphorylation) is 32 to 49%; in test [3] (Rattus norvegicus, CCK-8 0.3 or 100 nM, 5 min, SE 50 µM 3 h or D3 25 µM 1 h preincubation, read-out: inhibition of CCK-8's dephosphorylation of LIMK), 20%. Further, in test [1] (setting [4]), the “effect on basal phosphorylation of cofilin” value was “Neither D3 nor SE affected the basal phosphorylation of LIMK or cofilin”. Moreover, the “inhibition of CCK-8-induced dephosphorylation of cofilin” value in test [2] was “completely inhibited”. Also, the “effect on basal phosphorylation of LIMK” value in test [3] (setting [4]) is “Neither D3 nor SE affected the basal phosphorylation of LIMK or cofilin”. As for `COc1cccc(Nc2nc(NCC3CCCO3)c3ccccc3n2)c1` (stereo not drawn) [LCH-7749944, N2-(3-methoxyphenyl)-N4-[(oxolan-2-yl)methyl]quinazoline-2,4-diamine], the “inhibition of dephosphorylation of cofilin stimulated by CCK-8 or TPA” value in test [1] is listed as “completely inhibited”. For the compound `CC(C)C(=O)Nc1ncc(-c2cc(C(F)F)nn2-c2c(Cl)cccc2Cl)s1` [LIMKi3], in test [1] (no stimulant), the “decrease of basal phosphorylation levels of cofilin” value was 39%. Besides, in test [1], the “inhibition of CCK-8-stimulated dephosphorylation of cofilin” value was “did not inhibit”. In addition, the “decrease of basal levels of LIMK phosphorylation” value in test [3] (no stimulant) came out at 33%. For the same compound, the “inhibition of LIMK dephosphorylation caused by CCK-8” value in test [3] (setting [5]) is “completely inhibited”.

With `O=c1cc(N2CCOCC2)oc2c(-c3ccccc3)cccc12` [LY294002], the “reversal of cofilin dephosphorylation by CCK-8” value in test [1] is “not PI3K or p38”.

Take `Cc1nc(Nc2[nH]nc3c2CN(C(=O)N[C@H](CN(C)C)c2ccccc2)C3(C)C)c2sccc2n1` [PF-3758309]: the “inhibition of dephosphorylation of cofilin stimulated by CCK-8 or TPA” value in test [1] is reported as “completely inhibited”. For the compound `CC(C)(C)n1nc(-c2ccc(Cl)cc2)c2c(N)ncnc21` [PP2], the “effect on basal phosphorylation level of cofilin” value in test [1] (no stimulant) is “None of these inhibitors altered the basal phosphorylation level of cofilin”. Besides, the “reversal of cofilin dephosphorylation stimulated by CCK-8 and TPA” value in test [1] is given as “completely reversed”. Take `Cc1c[nH]c2ncnc(-c3ccc(NC(=O)N(CCO)c4ccccc4)cc3)c12` [SR7826]: the “decrease of basal phosphorylation levels of cofilin” value in test [1] (no stimulant) turned out to be 67%. Moreover, the “inhibition of CCK-8-stimulated dephosphorylation of cofilin” value in test [1] was “did not inhibit”. Moreover, the “decrease of basal levels of LIMK phosphorylation” value in test [3] (no stimulant) came to 33%. Also, in test [3] (setting [5]), the “increase in LIMK phosphorylation with CCK-8 stimulation” value is recorded as 80% and the “inhibition of LIMK dephosphorylation caused by CCK-8” value was “completely inhibited”. For `COC[C@H]1OC(=O)c2coc3c2[C@@]1(C)C1=C(C3=O)[C@@H]2CCC(=O)[C@@]2(C)C[C@H]1OC(C)=O` [Wortmannin], the “reversal of cofilin dephosphorylation by CCK-8” value in test [1] is on record as “not PI3K or p38”.

Consider `C[C@@H](N)[C@H]1CC[C@H](C(=O)Nc2ccncc2)CC1` [Y-27632], for which the “reversal of cofilin dephosphorylation by CCK-8” value in test [1] is given as “completely reversed”. Consider `C[N+](C)(C)CCOC(N)=O` [carbachol], for which the “effect on cofilin phosphorylation (pS3)” value in test [1] is recorded as “rapidly decreased cofilin phosphorylation”.

Consider KbNB142-70, for which the “effect on basal phosphorylation level of cofilin” value in test [1] (no stimulant) is on record as “None of these inhibitors altered the basal phosphorylation level of cofilin”. The “reversal of cofilin dephosphorylation stimulated by CCK-8 and TPA” value in test [1] is on record as “completely reversed”. Take “VIP: pancreatic acinar secretagogue (HSDAVFTDNYTRLRKQMAVKKYLNSILN; ends and bridges not checked; UniProt P01282 125-152, looked up)”: in test [1], the “effect on cofilin phosphorylation (pS3)” value is recorded as “rapidly decreased cofilin phosphorylation”.

On to bombesin, for which the “effect on cofilin phosphorylation (pS3)” value in test [1] is “rapidly decreased cofilin phosphorylation”. On to secretin, for which the “effect on cofilin phosphorylation (pS3)” value in test [1] is “rapidly decreased cofilin phosphorylation”.
